{"source": "paper PMC5712788", "about": "“DM9 Domain Containing Protein Functions As a Pattern Recognition Receptor with Broad Microbial Recognition Spectrum” (Frontiers in Immunology, 2017)", "biological_target": "T1, CgDM9CP-1 (rCgDM9CP-1) (Magallana gigas, UniProt K1QRB6)", "T1 construct": "gene CGI_10011001; recombinant, E. coli Transetta (DE3); two DM9 domains; mutants in pET-28a with N-terminal 6xHis; 5MH2 is D22A, 5MH3 is K43A", "T1 sequence (K1QRB6 1-143)": "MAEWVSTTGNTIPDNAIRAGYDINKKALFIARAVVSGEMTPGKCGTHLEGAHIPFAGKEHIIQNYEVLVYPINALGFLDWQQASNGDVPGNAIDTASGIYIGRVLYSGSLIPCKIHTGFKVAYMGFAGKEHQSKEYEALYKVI", "assay": "ITC", "type": "binding", "settings": "25°C, PBS (pH 7.2 in table, 7.4 in methods), N = 1", "from_the_text": "ITC on CgDM9CP-1 (rCgDM9CP-1)"}
{"molecule": "OC[C@H]1OC(O)[C@@H](O)[C@@H](O)[C@@H]1O", "note": "(stereo partly drawn) [D-mannose]", "values": [{"measurement": "Kd", "value": "123 ± 19.7", "unit": "µM"}, {"measurement": "Value", "value": "8.16 ± 0.19 10^3 M^−1"}]}
